Results as given in US10851102B2, “Imidazole and triazole containing bicyclic compounds as JAK inhibitors” (THERAVANCE BIOPHARMA R&D IP, LLC, priority 2019, dated 2020).

Legend:
[1] = system: IL-2 stimulated pSTAT5 in CD4+ T cells isolated from murine splenocytes (JAK3); assay: Inhibition of IL-2 stimulated pSTAT5 in CD4+ T cells isolated from murine splenocytes; assay type: cell-based; conditions: Mus musculus, IL-2 7 ng/ml, read-out: pIC50, inhibition of IL-2 stimulated pSTAT5 (converted)
Caco-2 cell monolayers = assay: Caco-2 permeation assay; assay type: in vitro ADME, human; conditions: 5 μM, A to B, + Verapamil 25 μM, 120 minutes
Text: Assay 5: Caco-2 Permeation Assay

SMILES	IC50 [1] [µM]	Caco Kp 10^−6 cm/sec (Caco-2 cell monolayers)
C=CC(=O)N1CC(COc2cc(-c3ccc(O)c(Cl)c3)cn3cncc23)C1 [Example 12, 1-(3-(((6-(3-chloro-4-hydroxyphenyl)imidazo[1,5-a]pyridin-8-yl)oxy)methyl)azetidin-1-yl)prop-2-en-1-one]	< 1	A (A represents a value below 5×10^−6 cm/sec)
C=CC(=O)N1CC(COc2cc(-c3cc(F)c(O)cc3CC)cn3cncc23)C1 [Example 13, 1-(3-(((6-(2-ethyl-5-fluoro-4-hydroxyphenyl)imidazo[1,5-a]pyridin-8-yl)oxy)methyl)azetidin-1-yl)prop-2-en-1-one]	< 1	A (A represents a value below 5×10^−6 cm/sec)
